Results on 26 compounds are retold here after patent publication US6506772B1, “Substituted [1,2,4]triazolo[1,5a]pyridine derivatives with activity as adenosine receptor ligands” (Hoffmann-La Roche Inc., priority 2000, dated 2003).

The structures appear in SMILES notation. pKi: −log10 of the molar value.

The target in assay [1] is T1, human adenosine A2A receptor (Homo sapiens, UniProt P29274).
T1 construct: expressed in transfected cells; host or cells: CHO cells, Semliki Forest virus expression system; membrane preparation
In words: Human adenosine A2A receptor [3H]-SCH-58261 binding assay. To be noted: for pKi: affinity to human adenosine A2A receptor, read-out: Ki HA2A; for selectivity (A1/A2a): calculated ratio of the affinity to the HA1 receptor to the HA2a receptor.

The target in the next assay is T2, HA1 adenosine receptor (Homo sapiens, UniProt P30542).
T2 sequence (P30542 1-326): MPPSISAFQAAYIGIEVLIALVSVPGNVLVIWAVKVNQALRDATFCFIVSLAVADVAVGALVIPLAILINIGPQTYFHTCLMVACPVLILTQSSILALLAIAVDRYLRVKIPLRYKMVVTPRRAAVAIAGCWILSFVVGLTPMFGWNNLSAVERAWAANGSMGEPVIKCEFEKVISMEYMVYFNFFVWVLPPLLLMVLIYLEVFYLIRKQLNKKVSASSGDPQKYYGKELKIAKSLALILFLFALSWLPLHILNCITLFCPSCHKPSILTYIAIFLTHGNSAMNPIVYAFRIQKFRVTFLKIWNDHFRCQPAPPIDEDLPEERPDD
The assay is described as follows: Human adenosine A1 receptor affinity (Ki hA1). As to conditions: affinity to human adenosine A1 receptor. In kind it is binding.

T1 sequence (P29274 whole entry): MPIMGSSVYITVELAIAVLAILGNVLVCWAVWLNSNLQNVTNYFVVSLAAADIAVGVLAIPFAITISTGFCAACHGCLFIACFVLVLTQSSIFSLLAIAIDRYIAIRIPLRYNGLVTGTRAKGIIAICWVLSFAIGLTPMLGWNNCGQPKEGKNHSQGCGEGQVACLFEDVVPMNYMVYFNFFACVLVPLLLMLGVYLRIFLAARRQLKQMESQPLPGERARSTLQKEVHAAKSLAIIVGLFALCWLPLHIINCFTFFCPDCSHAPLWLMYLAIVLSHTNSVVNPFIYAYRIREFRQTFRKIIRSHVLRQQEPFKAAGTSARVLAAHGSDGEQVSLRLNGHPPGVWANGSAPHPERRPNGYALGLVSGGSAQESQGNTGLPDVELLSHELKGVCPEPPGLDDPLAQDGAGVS

For `Nc1cc(C(=O)NCc2ccccc2Cl)cc2nc(-c3cc(Br)co3)nn12` [Example 174, 5-Amino-2-(4-bromo-furan-2-yl)-[1,2,4]triazolo[1,5-a]pyridine-7-carboxylic acid 2-chloro-benzylamide], the negative-log Ki (pKi) in assay [1] was 7.95; on HA1 adenosine receptor, 7.76. In addition, in assay [1], the “selectivity (A1/A2a)” value is on record as 1.6.
Turning to `Nc1cc(C(=O)NCc2ccccc2Br)cc2nc(-c3cc(Br)co3)nn12` [Example 175, 5-Amino-2-(4-bromo-furan-2-yl)-[1,2,4]triazolo[1,5-a]pyridine-7-carboxylic acid 2-bromo-benzylamide], in assay [1], the pKi was 7.84 and the “selectivity (A1/A2a)” value is 1.5. The same compound had a pKi at HA1 adenosine receptor of 7.65.
For `COc1ccc(CNC(=O)c2cc(N)n3nc(-c4cc(Br)co4)nc3c2)cc1` [Example 176, 5-Amino-2-(4-bromo-furan-2-yl)-[1,2,4]triazolo[1,5-a]pyridine-7-carboxylic acid 4-methoxy-benzylamide], the pKi was 6.48 in assay [1] and 6.82 on HA1 adenosine receptor. Moreover, the “selectivity (A1/A2a)” value in assay [1] is 0.5.
The like results for `COc1cc(CNC(=O)c2cc(N)n3nc(-c4cc(Br)co4)nc3c2)cc(OC)c1OC` [Example 177, 5-Amino-2-(4-bromo-furan-2-yl)-[1,2,4]triazolo[1,5-a]pyridine-7-carboxylic acid 3,4,5-trimethoxy-benzylamide] were, in that order, 6.70, 6.57 and 1.3.
On to `CCCCNC(=O)c1cc(N)n2nc(-c3cccn3C)nc2c1` [Example 178, 5-Amino-2-(1-methyl-1H-pyrrol-2-yl)-[1,2,4]triazolo[1,5-a]pyridine-7-carboxylic acid butylamide], for which, in assay [1], the pKi was 7.19 and the “selectivity (A1/A2a)” value is recorded as 6.9. Besides, the pKi at HA1 adenosine receptor is 6.35.
In the case of `Cn1cccc1-c1nc2cc(C(=O)NC3CCCCC3)cc(N)n2n1` [Example 179, 5-Amino-2-(1-methyl-1H-pyrrol-2-yl)-[1,2,4]triazolo[1,5-a]pyridine-7-carboxylic acid cyclohexylamide], in assay [1], the pKi was 6.84 and the “selectivity (A1/A2a)” value is given as 5.4. On HA1 adenosine receptor, the pKi is 6.11.
As to `Cn1cccc1-c1nc2cc(C(=O)NCc3ccccc3)cc(N)n2n1` [Example 180, 5-Amino-2-(1-methyl-1H-pyrrol-2-yl)-[1,2,4]triazolo[1,5-a]pyridine-7-carboxylic acid benzylamide], in assay [1], the pKi is 6.95 and the “selectivity (A1/A2a)” value was 2.7. For the same compound, the pKi at HA1 adenosine receptor is 6.51.
Regarding `Cn1cccc1-c1nc2cc(C(=O)NCc3ccccc3Cl)cc(N)n2n1` [Example 181, 5-Amino-2-(1-methyl-1H-pyrrol-2-yl)-[1,2,4]triazolo[1,5-a]pyridine-7-carboxylic acid 2-chloro-benzylamide], the pKi in assay [1] is 7.27; at HA1 adenosine receptor it was 6.59. In assay [1], the “selectivity (A1/A2a)” value is reported as 4.7.
The like results for `Cn1cccc1-c1nc2cc(C(=O)NCc3ccccc3Br)cc(N)n2n1` [Example 182, 5-Amino-2-(1-methyl-1H-pyrrol-2-yl)-[1,2,4]triazolo[1,5-a]pyridine-7-carboxylic acid 2-bromo-benzylamide] were, in that order, 7.26, 6.57 and 4.9.
The corresponding values for `COc1ccc(CNC(=O)c2cc(N)n3nc(-c4ccco4)nc3c2)cc1` [Example 183, 5-Amino-2-furan-2-yl-[1,2,4]triazolo[1,5-a]pyridine-7-carboxylic acid 4-methoxy-benzylamide] are 7.47, 6.52 and 9.0.
The like results for `CCCCNC(=O)c1cc(N)n2nc(-c3sccc3C)nc2c1` [Example 184, 5-Amino-2-(3-methyl-thiophen-2-yl)-[1,2,4]triazolo[1,5-a]pyridine-7-carboxylic acid butylamide] were, in that order, 7.16, 6.87 and 1.9.
As to `CCN(CC)C(=O)c1cc(N)n2nc(-c3sccc3C)nc2c1` [Example 185, 5-Amino-2-(3-methyl-thiophen-2-yl)-[1,2,4]triazolo[1,5-a]pyridine-7-carboxylic acid diethylamide], in assay [1], the pKi was 6.62 and the “selectivity (A1/A2a)” value is on record as 6.0. Moreover, on HA1 adenosine receptor, the pKi is 5.85.
On to `Cc1ccsc1-c1nc2cc(C(=O)N(C(C)C)C(C)C)cc(N)n2n1` [Example 186, 5-Amino-2-(3-methyl-thiophen-2-yl)-[1,2,4]triazolo[1,5-a]pyridine-7-carboxylic acid diisopropylamide], for which the pKi was 6.68 in assay [1] and 6.60 at HA1 adenosine receptor. Also, the “selectivity (A1/A2a)” value in assay [1] was 1.2.
The like results for `Cc1ccsc1-c1nc2cc(C(=O)NC3CCc4ccccc43)cc(N)n2n1` (stereo not drawn) [Example 187, 5-Amino-2-(3-methyl-thiophen-2-yl)-[1,2,4]triazolo[1,5-a]pyridine-7-carboxylic acid indan-1-ylamide] were, in that order, 6.65, 6.64 and 1.0.
With `Cc1ccsc1-c1nc2cc(C(=O)N3CCCC3)cc(N)n2n1` [Example 188, [5-Amino-2-(3-methyl-thiophen-2-yl)-[1,2,4]triazolo[1,5-a]pyridin-7-yl]-pyrrolidin-1-yl-methanone], in assay [1], the pKi was 6.65 and the “selectivity (A1/A2a)” value is 3.1. The compound further had a pKi at HA1 adenosine receptor of 6.15.
`Cc1ccsc1-c1nc2cc(C(=O)N3CCCCC3)cc(N)n2n1` [Example 189, [5-Amino-2-(3-methyl-thiophen-2-yl)-[1,2,4]triazolo[1,5-a]pyridin-7-yl]-piperidin-1-yl-methanone]: in assay [1], the pKi is 6.57 and the “selectivity (A1/A2a)” value is 2.9. Besides, the negative-log Ki (pKi) at HA1 adenosine receptor is 6.12.
The like results for `Cc1ccsc1-c1nc2cc(C(=O)NC(C)c3ccccc3)cc(N)n2n1` (stereo not drawn) [Example 190, 5-Amino-2-(3-methyl-thiophen-2-yl)-[1,2,4]triazolo[1,5-a]pyridine-7-carboxylic acid (1-phenyl-ethyl)-amide] were, in that order, 6.44, 0.1 and 7.33.
The corresponding values for `Cc1ccsc1-c1nc2cc(C(=O)NCc3ccccc3Cl)cc(N)n2n1` [Example 191, 5-Amino-2-(3-methyl-thiophen-2-yl)-[1,2,4]triazolo[1,5-a]pyridine-7-carboxylic acid 2-chloro-benzylamide] are 6.97, 1.2 and 6.88.
As for `COc1ccccc1CNC(=O)c1cc(N)n2nc(-c3sccc3C)nc2c1` [Example 192, 5-Amino-2-(3-methyl-thiophen-2-yl)-[1,2,4]triazolo[1,5-a]pyridine-7-carboxylic acid 2-methoxy-benzylamide], the values for the pKi (in assay [1]; at HA1 adenosine receptor) were 6.89 and 6.95, respectively. Besides, the “selectivity (A1/A2a)” value in assay [1] is 0.9.
As to `CCCCNC(=O)c1cc(N)n2nc(-c3ccc(C)s3)nc2c1` [Example 193, 5-Amino-2-(5-methyl-thiophen-2-yl)-[1,2,4]triazolo[1,5-a]pyridine-7-carboxylic acid butylamide], the pKi was 7.38 in assay [1] and 7.13 on HA1 adenosine receptor. In addition, the “selectivity (A1/A2a)” value in assay [1] is reported as 1.8.
In the case of `CCN(C(=O)c1cc(N)n2nc(-c3ccc(C)s3)nc2c1)C(C)C` [Example 194, 5-Amino-2-(5-methyl-thiophen-2-yl)-[1,2,4]triazolo[1,5-a]pyridine-7-carboxylic acid ethyl-isopropyl-amide], in assay [1], the pKi was 7.25 and the “selectivity (A1/A2a)” value is on record as 4.4. Moreover, at HA1 adenosine receptor, the pKi was 6.61.
In the case of `Cc1ccc(-c2nc3cc(C(=O)NC4CCCCC4)cc(N)n3n2)s1` [Example 195, 5-Amino-2-(5-methyl-thiophen-2-yl)-[1,2,4]triazolo[1,5-a]pyridine-7-carboxylic acid cyclohexylamide], the pKi is 6.96 in assay [1] and 6.84 at HA1 adenosine receptor. The “selectivity (A1/A2a)” value in assay [1] is reported as 1.3.
Turning to `Cc1ccc(-c2nc3cc(C(=O)N4CCCC4)cc(N)n3n2)s1` [Example 196, [5-Amino-2-(5-methyl-thiophen-2-yl)-[1,2,4]triazolo[1,5-a]pyridin-7-yl]-pyrrolidin-1-yl-methanone], the pKi is 7.28 in assay [1] and 6.36 at HA1 adenosine receptor. Also, the “selectivity (A1/A2a)” value in assay [1] is on record as 8.3.
Take `Cc1ccc(-c2nc3cc(C(=O)NCc4ccccc4)cc(N)n3n2)s1` [Example 197, 5-Amino-2-(5-methyl-thiophen-2-yl)-[1,2,4]triazolo[1,5-a]pyridine-7-carboxylic acid benzylamide]: in assay [1], the pKi was 6.75 and the “selectivity (A1/A2a)” value was 0.5. The negative logarithm of the Ki (pKi) on HA1 adenosine receptor is 7.04.
The like results for `Cc1ccc(-c2nc3cc(C(=O)NC(C)c4ccccc4)cc(N)n3n2)s1` (stereo not drawn) [Example 198, 5-Amino-2-(5-methyl-thiophen-2-yl)-[1,2,4]triazolo[1,5-a]pyridine-7-carboxylic acid (1-phenyl-ethyl)-amide] were, in that order, 6.76, 0.6 and 6.95.
The corresponding values for `Cc1ccc(-c2nc3cc(C(=O)NCc4ccccc4Cl)cc(N)n3n2)s1` [Example 199, 5-Amino-2-(5-methyl-thiophen-2-yl)-[1,2,4]triazolo[1,5-a]pyridine-7-carboxylic acid 2-chloro-benzylamide] are 7.52, 1.2 and 7.43.
